Data as given in paper PMC12040169 (PLOS Biology, 2025).

Experiment: in vitro
Conditions: human, hela cells, % viability

SMILES	viability at 28.5 h, 10 µM
OCc1cccc(-c2nccnc2NCc2ccc(F)cc2)c1 [CBK037670]	103%
COc1ccc(-c2nccnc2NCCCN(C)C)cc1 [CBK037671]	93.9%
Fc1cccc(F)c1-c1cc(Nc2ccc(N3CCOCC3)cc2)ncn1 [CBK037673]	99.5%
CCOc1cccc(-c2ccc(Nc3ccc(Oc4ccccc4)cc3)nc2)c1 [CBK037679]	94.4%
O=C(c1ccco1)N1CCN(c2ccc(-c3ccc(F)c(Cl)c3)cn2)CC1 [CBK037683]	93.9%
c1cc(CCNc2cc(-c3ccc4c(c3)OCO4)ncn2)ccn1 [CBK037689]	99.5%
FC(F)(F)c1cc(-c2cc(N3CCC(N4CCCCC4)CC3)ncn2)cc(C(F)(F)F)c1 [CBK037692]	92.6%
CCN(CC)CCN1CCN(c2cc(-c3ccc4c(c3)OCO4)ncn2)CC1 [CBK037694]	86%
CN(C)c1cccc(-c2cccc(NCC(c3cccnc3)N(C)C)n2)c1 (stereo not shown) [CBK037697]	117%
Fc1ccc(-c2cccc(Nc3ccc(Oc4ccccc4)cc3)n2)cc1Cl [CBK037699]	102%
O=C(O)c1ccc(-c2ccc(N3CCN(C(=O)c4ccco4)CC3)nc2)cc1 [CBK037700]	97.9%
O=C(c1ccco1)N1CCN(c2ccc(/C=C/c3ccccc3)cn2)CC1 [CBK037701]	98.7%
COc1cc(-c2ccc(Nc3cccnc3)nc2)cc(OC)c1OC [CBK037704]	84.6%
c1ccc2c(c1)oc1cccc(-c3cc(NCCc4c[nH]cn4)ncn3)c12 [CBK037708]	94.6%
CC(=O)Nc1cccc(-c2cc(Nc3ccc(N4CCN(Cc5ccccc5)CC4)cc3)ncn2)c1 [CBK037709]	81.8%
O=[N+]([O-])c1cccc(-c2cc(N3CCC(N4CCCCC4)CC3)ncn2)c1 [CBK037710]	107%
c1cncc(-c2cc(NCCc3ccncc3)ncn2)c1 [CBK037716]	114%
COc1cc(Nc2cccc(-c3ccco3)n2)cc(OC)c1OC [CBK037724]	108%
COCCNc1cc(-c2ccncc2)ncn1 [CBK037729]	87.6%
CCNc1cc(-c2cccc(N)c2)ncn1 [CBK037731]	96.4%
O=C(c1ccco1)N1CCN(c2cc(-c3cc(C(F)(F)F)cc(C(F)(F)F)c3)ncn2)CC1 [CBK037734]	102%
O=C(c1ccco1)N1CCN(c2ccc(-c3cccc(Cl)c3Cl)cn2)CC1 [CBK037737]	95.4%
COc1cncc(-c2ccc(N3CCN(c4ccccc4C#N)CC3)nc2)c1 [CBK037738]	107%

SMILES	viability at 28.5 h, 10 µM
CCOc1cccc(-c2ccc(Nc3cccc(NC(=O)c4ccncc4)c3)nc2)c1 [CBK037739]	49.4%
O=c1[nH]ccn1CCNc1ccc(-c2cccc(Cl)c2Cl)cn1 [CBK037745]	93.1%
COc1ccc(C(C)C)cc1-c1cc(Nc2cc(OC)c(OC)c(OC)c2)n2nccc2n1 [CBK037746]	103%
COc1ccc(C(=O)OC(C)(C)C)c(-c2cncc(NCc3ccco3)n2)c1 [CBK037751]	87.8%
CCN(CC)CCN1CCN(c2cc(-c3ccc(OC(F)(F)F)cc3)ncn2)CC1 [CBK037756]	96.3%
c1nc(Nc2ccc3[nH]ccc3c2)cc(-c2ccc3c(c2)OCO3)n1 [CBK037761]	94.4%
c1ccc(CCNc2cc(-c3cccc4ccccc34)ncn2)nc1 [CBK037762]	94.5%
CN(C)CCN(C)c1cc(-c2cccc(-c3ccccc3)c2)ncn1 [CBK037763]	99.4%
c1coc(-c2ccc(Nc3ccc4c(c3)OCCO4)nc2)c1 [CBK037765]	96.9%
O=C(O)CCc1ccc(-c2ccc(Nc3cccnc3)nc2)cc1 [CBK037768]	106%
COc1ccccc1-c1cccc(NCC(c2cccnc2)N(C)C)n1 (stereo not shown) [CBK037770]	103%
Cc1ccc(-c2ccc(N3CCN(C(=O)c4ccco4)CC3)nc2)cc1C [CBK037775]	106%
O=C(O)c1cccc(-c2ccc(Nc3cccc(NC(=O)c4ccncc4)c3)nc2)c1 [CBK037776]	101%
CCC(CO)Nc1cncc(-c2cccc(O)c2)n1 (stereo not shown) [CBK037777]	96%
N#Cc1ccc(-c2cc(NCCc3ccncc3)ncn2)cc1 [CBK037787]	98.1%
Cc1ccc(S(=O)(=O)Nc2ccc(Nc3cc(-c4ccsc4)ncn3)cc2)cc1 [CBK037792]	96.5%
c1ccc(COc2ccccc2-c2cc(N3CCN(c4ccccn4)CC3)ncn2)cc1 [CBK037793]	97.4%
COc1cc(CNc2cc(-c3ccsc3)ncn2)cc(OC)c1OC [CBK037794]	92%
Clc1cccc(-c2cccc(Nc3cccnc3)n2)c1Cl [CBK037800]	102%
COc1cncc(-c2ccc(N3CCN(C(=O)c4ccco4)CC3)nc2)c1 [CBK037801]	96.7%
CC(C)(C)OC(=O)NCc1ccc(-c2ccc(Nc3cccnc3)nc2)cc1 [CBK037804]	95.3%
COc1ccccc1-c1cc(Nc2ccc(NS(=O)(=O)c3ccc(C)cc3)cc2)ncn1 [CBK037819]	113%
COc1cc(CNc2cc(-c3ccc4c(c3)OCO4)ncn2)cc(OC)c1OC [CBK037822]	98.9%

SMILES	viability at 28.5 h, 10 µM
c1ccc(COc2ccccc2-c2cc(NCCc3ccccn3)ncn2)cc1 [CBK037826]	102%
CCCC/C=C/c1cncc(NC2CCC(N)CC2)n1 (stereo not shown) [CBK037827]	97.2%
COc1ccc(-c2cncc(N(C)CCN(C)C)n2)cc1 [CBK037832]	101%
O=C(c1ccco1)N1CCN(c2cc(-c3cccnc3)ncn2)CC1 [CBK037833]	101%
CN(C)c1ccc(Nc2cc(-c3cccc4ccccc34)ncn2)cc1 [CBK037835]	46.8%
COc1cc(-c2cc(N3CCN(CCN4CCCC4)CC3)ncn2)cc(OC)c1OC [CBK037841]	102%
CC(C)(C)OC(=O)NCc1ccc(-c2cc(Nc3cccc(Cl)c3)ncn2)cc1 [CBK037842]	92.8%
c1ccc(Oc2ccccc2-c2cc(NCCc3c[nH]cn3)ncn2)cc1 [CBK037845]	82.9%
COc1cc(-c2cncc(NCC(C)(C)CO)n2)cc(OC)c1OC [CBK037854]	105%
CC(CCCC(C)(C)O)Nc1cncc(-c2cccc(Cl)c2)n1 (stereo not shown) [CBK037857]	90.1%
Oc1cccc(-c2cncc(NCCCN3CCOCC3)n2)c1 [CBK037858]	89.1%
COc1ncc(-c2cn3ccnc3c(N3CCN(CCO)CC3)n2)c(OC)n1 [CBK037869]	107%
COc1ncc(-c2cncc(N3CCN(c4ccccc4C#N)CC3)n2)c(OC)n1 [CBK037872]	105%
OCCN1CCN(c2nc(-c3cccnc3)cn3ccnc23)CC1 [CBK037887]	99.3%
COc1ccc(C(C)C)cc1-c1cncc(N2CCCCC2CCO)n1 (stereo not shown) [CBK037897]	94.4%
COc1ccc(C(C)C)cc1-c1cncc(N2CCC(C(=O)O)CC2)n1 [CBK037900]	104%
OCCN(CCO)c1cncc(-c2cccc(C(F)(F)F)c2)n1 [CBK037917]	109%
CCCNc1cncc(-c2cccnc2)n1 [CBK037921]	99.1%
COc1ccc(C(=O)OC(C)(C)C)c(-c2cncc(NC3CCC(N)CC3)n2)c1 (stereo not shown) [CBK037922]	109%
CC(=O)Nc1cccc(-c2cn3ccnc3c(N3CCN(C)CC3)n2)c1 [CBK037930]	95.2%
CCCC/C=C/c1cncc(NCc2ccc(OC)cc2)n1 [CBK037933]	96.7%
COc1ccc(-c2cncc(N[C@@H](CO)C(C)C)n2)cc1 [CBK037941]	82.8%
CCCC/C=C/c1cncc(Nc2ccccc2)n1 [CBK037942]	103%

SMILES	viability at 28.5 h, 10 µM
c1ccc(Nc2nc(-c3ccco3)cn3ccnc23)cc1 [CBK037947]	86.9%
c1ccc(CNc2nc(-c3ccco3)cn3ccnc23)cc1 [CBK037955]	90.6%
OCc1ccccc1-c1cn2ccnc2c(Nc2ccc(N3CCOCC3)cc2)n1 [CBK037956]	85.8%
CC(=O)c1ccc(-c2cn3ccnc3c(N3CCN(C)CC3)n2)s1 [CBK037957]	94.4%
CC(=O)Nc1cccc(-c2nccnc2NCC2CC2)c1 [CBK037962]	90.4%
OCc1ccccc1-c1cn2ccnc2c(N[C@@H]2CCN(Cc3ccccc3)C2)n1 [CBK037969]	104%
CC(=O)Nc1ccc(NC(=O)c2cnc(-c3ccc(F)cc3)c(-c3ccco3)c2)cc1 [CBK037977]	98.8%
CC(=O)c1ccc(-c2nccnc2NCc2ccc(C(F)(F)F)cc2)s1 [CBK037983]	99.2%
CC(C)[C@H](CO)Nc1nccnc1-c1ccccc1F [CBK037987]	106%
COc1ncc(-c2nccnc2NCc2cccc(Cl)c2)c(OC)n1 [CBK037990]	90%
CC(=O)Nc1ccc(Nc2nc(-c3ccc(O)cc3)cn3ccnc23)cc1 [CBK037992]	94.8%
COc1cccc(CNc2nccnc2-c2ccccc2F)c1OC [CBK037993]	98.1%
CN(Cc1ccccc1)c1nccnc1-c1ccc(F)c(Cl)c1 [CBK037997]	107%
OCc1ccccc1-c1cn2ccnc2c(Nc2ccccc2)n1 [CBK037999]	108%
CCCC/C=C/c1nccnc1NCCCO [CBK038006]	102%
COCCNc1nccnc1-c1ccsc1 [CBK038008]	95.4%
CN1CCCN(c2nccnc2-c2ccccc2CO)CC1 [CBK038014]	106%
COc1cccc(OC)c1-c1cn2ccnc2c(NC2CC2)n1 [CBK038020]	104%
CCCC/C=C/c1cn2ccnc2c(N2CCOCC2)n1 [CBK038031]	100%
COc1cc(Nc2nc(-c3cccc(OC(F)(F)F)c3)cn3ccnc23)cc(OC)c1OC [CBK038036]	101%
OCC1CCCN1c1nccnc1-c1ccccc1F (stereo not shown) [CBK038037]	104%
O=C(O)c1cccc(-c2nccnc2NCC2CC2)c1 [CBK038043]	95.5%
